Experimental data as given in ChEMBL document CHEMBL5727796, “Substituted purine derivative” (2020).

biological target: T1, Toll-like receptor 7 (Homo sapiens, UniProt Q9NYK1); test: Inhibition of the Activation Assay: As human TLR7 expressing cell line, HEK293 cell line was bought from IMGENEX Corporation (TLR7/NF-ηB/SEAPorter™ HEK293 cell), which is human embryonic kidney cell line and stably expresses full-length human TLR7 gene and secreted alkaline phosphatase (SEAP) reporter gene under the transcriptional control of an NE-ηB response element. The TLR7/NF-ηB/SEAPorter™ HEK293 cell was cultivated with DMEM containing 10% fetal bovine serum (FBS) and 10 μg/mL blasticidin S at 37° C. in the presence of 5% CO2.
T1 sequence (Q9NYK1 whole entry): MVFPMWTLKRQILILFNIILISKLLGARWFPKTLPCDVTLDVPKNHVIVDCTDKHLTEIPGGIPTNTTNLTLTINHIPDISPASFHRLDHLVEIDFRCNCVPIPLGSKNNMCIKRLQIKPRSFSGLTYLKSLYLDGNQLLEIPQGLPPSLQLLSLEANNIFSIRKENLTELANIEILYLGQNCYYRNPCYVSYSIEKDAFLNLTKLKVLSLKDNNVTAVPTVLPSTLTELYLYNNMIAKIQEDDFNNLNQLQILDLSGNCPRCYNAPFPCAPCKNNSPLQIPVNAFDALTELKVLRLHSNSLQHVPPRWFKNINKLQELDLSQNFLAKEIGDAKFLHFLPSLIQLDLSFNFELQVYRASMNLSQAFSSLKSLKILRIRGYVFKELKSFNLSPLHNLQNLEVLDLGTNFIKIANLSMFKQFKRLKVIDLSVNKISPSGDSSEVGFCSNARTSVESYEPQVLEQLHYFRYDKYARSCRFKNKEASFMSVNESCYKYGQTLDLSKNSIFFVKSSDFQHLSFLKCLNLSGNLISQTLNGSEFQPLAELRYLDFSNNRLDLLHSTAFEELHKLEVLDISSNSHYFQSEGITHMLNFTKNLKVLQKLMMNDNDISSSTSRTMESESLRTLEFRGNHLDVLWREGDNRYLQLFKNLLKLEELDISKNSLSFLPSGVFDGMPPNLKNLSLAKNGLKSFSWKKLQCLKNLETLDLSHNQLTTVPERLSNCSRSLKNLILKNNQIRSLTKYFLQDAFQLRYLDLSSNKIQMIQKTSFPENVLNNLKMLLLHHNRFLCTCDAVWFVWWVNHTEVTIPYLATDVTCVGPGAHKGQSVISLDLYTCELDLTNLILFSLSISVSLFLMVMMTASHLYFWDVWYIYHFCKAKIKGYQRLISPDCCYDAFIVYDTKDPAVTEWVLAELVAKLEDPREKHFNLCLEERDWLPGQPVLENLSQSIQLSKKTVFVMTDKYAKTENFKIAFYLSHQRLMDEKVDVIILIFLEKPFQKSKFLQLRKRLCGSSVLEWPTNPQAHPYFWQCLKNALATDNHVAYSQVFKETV

IC50 [nM] | SMILES
420 | CCOc1nc(N)c2nc(-c3cncc(F)c3)n(Cc3ccc(F)c(OCCN(C)C)c3)c2n1
99 | CCOc1nc(N)c2nc(-c3cncc(F)c3)n(Cc3ccc(OCCN(C)C)cc3)c2n1
89 | CCOc1nc(N)c2nc(-c3cncc(F)c3)n(Cc3ccc(OCCCN(C)C)cc3)c2n1
67 | CCOc1nc(N)c2nc(-c3cncc(F)c3)n(Cc3ccc(OCCN4CCN(C)CC4)cc3)c2n1
810 | CCOc1nc(N)c2nc(-c3cncc(F)c3)n(Cc3ccc(OCCN(C)C)nc3)c2n1
460 | CCOc1nc(N)c2nc(-c3cncc(F)c3)n(Cc3ccc4c(c3)CN(C(=O)CN(C)C)C4)c2n1
1300 | CCOc1nc(N)c2nc(-c3cncc(F)c3)n(Cc3cc(CN(C)C)no3)c2n1
620 | CCOc1nc(N)c2nc(-c3cncc(F)c3)n(Cc3ccc(F)c(OCCN4CCCC4)c3)c2n1
1800 | CCOc1nc(N)c2nc(-c3cncc(F)c3)n(Cc3ccnc(OCCN(C)C)c3)c2n1
620 | CCOc1nc(N)c2nc(-c3cncc(F)c3)n(Cc3ccc(OCCN4CCCC4)nc3)c2n1
5800 | CCOc1nc(N)c2nc(-c3cncc(F)c3)n(Cc3cc(OCCN(C)C)ccn3)c2n1
77 | CCOc1nc(N)c2nc(-c3cncc(F)c3)n(Cc3cccc(OCCN(C)C)c3)c2n1
60 | CCOc1nc(N)c2nc(-c3cncc(F)c3)n(Cc3cccc(OCCCN(C)C)c3)c2n1
280 | CCOc1nc(N)c2nc(-c3cncc(F)c3)n(Cc3ccc(OCCN4CCN(C)CC4)nc3)c2n1
1430 | CCOc1nc(N)c2nc(-c3cncc(F)c3)n(Cc3cccc(OCCN(C)C)n3)c2n1

The remaining lines, values behind:

SMILES | IC50 [nM]
CCOc1nc(N)c2nc(-c3cncc(F)c3)n(Cc3ccc(CN4CCN5CCC4C5)cc3)c2n1 (stereo not given) | 51
CCCCOc1nc(N)c2nc(-c3cccc(CN4CCOCC4)c3)n(Cc3ccccc3)c2n1 | 13900
COc1nc(C)c2nc(-c3cncc(F)c3)n(Cc3ccc([C@H]4CN5CCC4CC5)cc3)c2n1 | 3
CCOc1nc(N)c2nc(-c3cncc(F)c3)n(Cc3ccccc3OC(F)F)c2n1 | 2170
CCOc1nc(C)c2nc(-c3cncc(F)c3)n(Cc3ccc(C4CN5CCC4CC5)cc3)c2n1 (stereo not given) | 7
COc1nc(C)c2nc(-c3cncc(F)c3)n(Cc3ccc(CC4CCN(C(=O)OC(C)(C)C)CC4)cc3F)c2n1 | 355
CCOc1nc(C)c2nc(-c3cncc(F)c3)n(Cc3cnn(C)c3)c2n1 | 2680
COc1nc(C)c2nc(-c3cncc(F)c3)n(Cc3ccc(C4=CCN(C(=O)OC(C)(C)C)CC4)cc3F)c2n1 | 291
CCCCOc1nc(C)c2nc(-c3cncc(F)c3)n(Cc3ccc(CN(C)C)cc3)c2n1 | 200
COc1nc(C)c2nc(-c3cccnc3)n(Cc3ccc(O[C@@H]4CN5CCC4CC5)cc3F)c2n1 | 70
CCOc1nc(N)c2nc(-c3cncc(F)c3)n(Cc3ccc(C4CCN(C)C4)cc3)c2n1 (stereo not given) | 20
CCCCOc1nc(N)c2nc(-c3ccc(CN4CCOCC4)cc3)n(Cc3ccccc3)c2n1 | 8200
COc1nc(C)c2nc(-c3cnccn3)n(Cc3ccc(C4CN5CCC4CC5)cc3F)c2n1 (stereo not given) | 43
CCCCCc1nc(N)c2nc(-c3cncc(F)c3)n(Cc3ccccc3)c2n1 | 9500
COc1nc(C)c2nc(-c3cncc(F)c3)n(Cc3ccc(C4CCN(C)C4)cc3)c2n1 (stereo not given) | 84
CCCCOc1nc(N)c2nc(-c3ccc(OCCCN4CCOCC4)cc3)n(Cc3ccccc3)c2n1 | 4100
CCOc1nc(C)c2nc(-c3cncc(F)c3)n(Cc3ccc(CN4CCN5CCC4C5)cc3)c2n1 (stereo not given) | 28
CCOc1nc(C)c2nc(-c3cncc(F)c3)n(Cc3ccc(CN4CCN5CC[C@H]4C5)cc3)c2n1 | 63
COCCOc1nc(N)c2nc(-c3cncc(C)c3)n(Cc3ccccc3)c2n1 | 9100
CCOc1nc(C)c2nc(-c3cncc(F)c3)n(Cc3ccc(CN4C[C@@H]5C[C@H]4CN5CC)nc3)c2n1 | 230
